Experimental data published in patent publication US9527885B2, “Hepatitis C virus inhibitors” (BRISTOL-MYERS SQUIBB COMPANY, priority 2011, dated 2016).
Read-outs that look alike come from different tables or passages of the source.

What was measured:
[1] = system: HCV genotype 1a (H77 strain) replicon in HUH-7 cells; assay: HCV replicon luciferase reporter assay, genotype 1a; assay type: cell-based; conditions: Hepatitis C virus, Huh-7, 72 h, 3 days incubation, read-out: LE_1a (EC50, range)
Source text: (§1) An HCV replicon whole cell system was established as described by Lohmann V, Korner F, Koch J, Herian U, Theilmann L, Bartenschlager R., Science 285(5424):110-3 (1999) and modified to introduce a luciferase reporter, as first described by Krieger et al (Krieger N, Lohmann V, and Bartenschlager R, J. Virol. 75(10):4614-4624 (2001)). CDNA encoding a humanized form of the Renilla luciferase gene and a linker sequence fused directly to the 3′-end of the luciferase gene were introduced into the replicon construct using an Asc1 restriction site located in core, directly upstream of the neomycin marker gene. The adaptive mutation at position 1179 (serine to isoleucine) was also introduced (Blight K J, Kolykhalov, A A, Rice, C M, Science 290(5498):1972-1974). A stable cell line constitutively expressing this HCV replicon construct was generated by first linearizing plasmid DNAs with ScaI. RNA transcripts were synthesized in vitro using the T7 MegaScript transcription kit (Ambion, Austin, Tex.) according to manufacturer's directions. In vitro transcripts of the cDNA were transfected into the human hepatoma cell line, HUH-7. […] Resulting cell lines were characterized for positive and negative strand RNA production and protein production over time.
A stable HCV replicon luciferase reporter cell line representing the genotype 1a H77 strain (Yanagi M, Purcell R H, Emerson S U, et al. Transcripts from a single full-length cDNA clone of hepatitis C virus are infectious when directly transfected into the liver of a chimpanzee. Proc Natl Acad Sci USA 1997; 94(16):8738-8743) was generated as described previously for the genotype 1b (Con1) replicon luciferase cell line. The replicon construct was modified by introducing mutations were introduced into the genes encoding the NS3 helicase domain (proline replaced by leucine at position 1496) and NS5A (serine to isoleucine at position 2204) to improve replication in cell culture.
(§2) HCV replicon luciferase assays were developed to monitor the inhibitory effects of compounds described in the disclosure on HCV genotypes 1a and 1b viral replication. HUH-7 cells, constitutively expressing the HCV replicon, were grown in Dulbecco's Modified Eagle Media (DMEM) (Gibco-BRL) containing 10% Fetal calf serum (FCS) (Sigma) and 1 mg/mL G418 (Gibco-BRL). Compounds were serially diluted 3 folds in DMSO for a twenty-point titration and subsequently transferred to sterile 384-well tissue-culture treated plates (Corning cat #3571). The plates were then seeded with 50 μL of cells at a density of 3.0×10^3 cells/well in DMEM containing 4% FCS (final DMSO concentration at 0.5%). After 3 days incubation at 37° C., cells were analyzed for Renilla Luciferase activity using the EnduRen as substrate (Promega cat #E6485). The EnduRen substrate was diluted in DMEM and then added to the plates to a final concentration of 7.5 μM. The plates were incubated for 2 hrs at 37° C. and then read immediately for 30 seconds with Viewlux Imager (PerkinElmer) using a luminescence program. To assess cytotoxicity of compounds, CC50 values were generated by multiplexing the EnduRen-containing plates with Cell Titer-Blue (Promega, cat # G8082). Cell-Titer Blue (3 μL) was added to each well and incubated for 8 hrs at 37° C. The fluorescence signal from each well was read, with an excitation wavelength at 525/10 nm and an emission wavelength of 598/10 nm, using the Viewlux Imager.
(§3) The EC50 values for compounds were calculated by using a four-parameter logistic equation: y=A+((B−A)/(1+((C/x)^D))), where A and B denotes minimal and maximal % inhibition, respectively, C is the EC50, D is the hill slope and x represents compound concentration.

[2] = system: HCV genotype 1b (Con1) replicon in HUH-7 cells; assay: HCV replicon luciferase reporter assay, genotype 1b; assay type: cell-based; conditions: Hepatitis C virus, 72 h, 3 days incubation, read-out: LE_1b (EC50, range)
Source text: as §1, with “time. […]” for “time.”
as §2, §3

[3] = HCV genotype 1a replicon luciferase, class symbols
[4] = HCV genotype 1b replicon luciferase, class symbols

Row | SMILES | EC50 [1, 3] | EC50 [2, 4] | further results
1 | CCOc1ccc2c(O[C@@H]3C[C@H]4C(=O)N[C@]5(C(=O)NS(=O)(=O)C6CC6)C[C@H]5/C=C\CC[C@H](C)C[C@@H](C)[C@H](NC(=O)OC(C)(C)C(F)(F)F)C(=O)N4C3)nccc2c1 [Compound 5129, 1,1,1-trifluoro-2-methylpropan-2-yl ((2R,6S,7R,9S,13aS,14aR,16aS,Z)-14a-((cyclopropylsulfonyl)carbamoyl)-2-((6-ethoxyisoquinolin-1-yl)oxy)-7,9-dimethyl-5,16-dioxo-1,2,3,5,6,7,8,9,10,11,13a,14,14a,15,16,16a-hexadecahydrocyclopropa[e]pyrrolo[1,2-a][1,4]diazacyclopentadecin-6-yl)carbamate] | 4.82 to 103 nM | < 5.46 nM | 
2 | CCOc1cnc(O[C@@H]2C[C@H]3C(=O)N[C@]4(C(=O)NS(=O)(=O)C5(C)CC5)C[C@H]4/C=C\CC[C@@H](C)C[C@@H](CC)[C@H](NC(=O)OC(C)(C)C(F)(F)F)C(=O)N3C2)c2ccccc12 [Compound 4202, 1,1,1-trifluoro-2-methylpropan-2-yl (2R,6S,7R,9R,13aS,14aR,16aS,Z)-2-(4-ethoxyisoquinolin-1-yloxy)-7-ethyl-9-methyl-14a-(1-methylcyclopropylsulfonylcarbamoyl)-5,16-dioxo-1,2,3,5,6,7,8,9,10,11,13a,14,14a,15,16,16a-hexadecahydrocyclopropa[e]pyrrolo[1,2-a][1,4]diazacyclopentadecin-6-ylcarbamate] | < 5.46 nM | < 5.46 nM | 
3 | C[C@@H]1CC/C=C\[C@@H]2C[C@@]2(C(=O)NS(=O)(=O)C2(C)CC2)NC(=O)[C@@H]2C[C@@H](Oc3nccc4c(N5CCOCC5)cccc34)CN2C(=O)[C@@H](NC(=O)OC(C)(C)C(F)(F)F)[C@H](C)C1 [Compound 5124, 1,1,1-trifluoro-2-methylpropan-2-yl ((2R,6S,7R,9R,13aS,14aR,16aS,Z)-7,9-dimethyl-14a-(((1-methylcyclopropyl)sulfonyl)carbamoyl)-2-((5-morpholinoisoquinolin-1-yl)oxy)-5,16-dioxo-1,2,3,5,6,7,8,9,10,11,13a,14,14a,15,16,16a-hexadecahydrocyclopropa[e]pyrrolo[1,2-a][1,4]diazacyclopentadecin-6-yl)carbamate] | < 5.46 nM | < 5.46 nM | 
4 | COc1ccc2c(O[C@@H]3C[C@H]4C(=O)N[C@]5(C(=O)NS(=O)(=O)C6(C)CC6)C[C@H]5/C=C\CC[C@@H](C)C[C@@H](C)[C@H](NC(=O)OC(C)(C)C(F)(F)F)C(=O)N4C3)nc(N(C)C)cc2c1 [Compound 3117, 1,1,1-trifluoro-2-methylpropan-2-yl ((2R,6S,7R,9R,13aS,14aR,16aS,Z)-2-((3-(dimethylamino)-6-methoxyisoquinolin-1-yl)oxy)-7,9-dimethyl-14a-(((1-methylcyclopropyl)sulfonyl)carbamoyl)-5,16-dioxo-1,2,3,5,6,7,8,9,10,11,13a,14,14a,15,16,16a-hexadecahydrocyclopropa[e]pyrrolo[1,2-a][1,4]diazacyclopentadecin-6-yl)carbamate] |  |  | EC50 ([1]; HCV genotype 1a replicon luciferase reporter, range class): < 5.46 nM; EC50 ([2]; HCV genotype 1b replicon luciferase reporter, range class): < 5.46 nM
5 | CC[C@@H]1C[C@H](C)CC/C=C\[C@@H]2C[C@@]2(C(=O)NS(=O)(=O)C2CC2)NC(=O)[C@@H]2C[C@@H](Oc3ncc(OC)c4ccccc34)CN2C(=O)[C@H]1NC(=O)OC(C)(C)C [Compound 4007, tert-butyl (2R,6S,7R,9R,13aS,14aR,16aS,Z)-14a-(cyclopropylsulfonylcarbamoyl)-7-ethyl-2-(4-methoxyisoquinolin-1-yloxy)-9-methyl-5,16-dioxo-1,2,3,5,6,7,8,9,10,11,13a,14,14a,15,16,16a-hexadecahydrocyclopropa[e]pyrrolo[1,2-a][1,4]diazacyclopentadecin-6-ylcarbamate] | < 5.46 nM | < 5.46 nM | 
6 | COc1ccc(-c2nc(O[C@@H]3C[C@H]4C(=O)N[C@]5(C(=O)NS(=O)(=O)C6CC6)C[C@@H]5/C=C\CC[C@@H](C)C[C@@H](C)[C@H](NC(=O)OC(C)(C)C)C(=O)N4C3)c3ccc(OC)cc3n2)cc1 [Compound 5002, tert-butyl ((2R,6S,7R,9R,13aR,14aR,16aS,Z)-14a-((cyclopropylsulfonyl)carbamoyl)-2-((7-methoxy-2-(4-methoxyphenyl)quinazolin-4-yl)oxy)-7,9-dimethyl-5,16-dioxo-1,2,3,5,6,7,8,9,10,11,13a,14,14a,15,16,16a-hexadecahydrocyclopropa[e]pyrrolo[1,2-a][1,4]diazacyclopentadecin-6-yl)carbamate] | < 5.46 nM | < 5.46 nM | 
7 | C[C@@H]1CC/C=C\[C@@H]2C[C@@]2(C(=O)NS(=O)(=O)C2(CF)CC2)NC(=O)[C@@H]2C[C@@H](Oc3nccc4c5c(ccc34)OCCO5)CN2C(=O)[C@@H](NC(=O)OC(C)(C)C)[C@H](C)C1 [Compound 5321, tert-butyl ((2R,6S,7R,9R,13aS,14aR,16aS,Z)-2-((2,3-dihydro-[1,4]dioxino[2,3-f]isoquinolin-7-yl)oxy)-14a-(((1-(fluoromethyl)cyclopropyl)sulfonyl)carbamoyl)-7,9-dimethyl-5,16-dioxo-1,2,3,5,6,7,8,9,10,11,13a,14,14a,15,16,16a-hexadecahydrocyclopropa[e]pyrrolo[1,2-a][1,4]diazacyclopentadecin-6-yl)carbamate] |  |  | EC50 ([1]; HCV genotype 1a replicon luciferase, range class): < 5.46 nM; EC50 ([2]; HCV genotype 1b replicon luciferase, range class): < 5.46 nM
8 | CC[C@@H]1C[C@H](C)CC/C=C\[C@@H]2C[C@@]2(C(=O)NS(=O)(=O)C2CC2)NC(=O)[C@@H]2C[C@@H](Oc3ncc(OC)c4ccc(F)cc34)CN2C(=O)[C@H]1NC(=O)OC(C)(C)C [Compound 4001, tert-butyl tert-butyl (2R,6S,7R,9R,13aS,14aR,16aS,Z)-14a-(cyclopropylsulfonylcarbamoyl)-7-ethyl-2-(7-fluoro-4-methoxyisoquinolin-1-yloxy)-9-methyl-5,16-dioxo-1,2,3,5,6,7,8,9,10,11,13a,14,14a,15,16,16a-hexadecahydrocyclopropa[e]pyrrolo[1,2-a][1,4]diazacyclopentadecin-6-ylcarbamate] | < 5.46 nM | < 5.46 nM | 
